Experimental data from PubChem BioAssay (NCI).
Values joined by “and” are separate entries in the source; they are usually repeats but may differ in a detail not shown here. Equal entries are not always repeated.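 Where inhibition never reached the appropriate level, the endpoint shown equals the highest concentration tested. Otherwise, values were interpolated linearly from a five-concentration, 48-hour dose response in 96-well plates. GI50 is the concentration that inhibits growth by half. TGI marks complete inhibition of growth.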

What was measured:
Experiment in all cases: inhibition of tumour cell growth, NCI panel, 48 h
MDA-MB-435 = system: MDA-MB-435
SNB-19 CNS = system: SNB-19 CNS
MALME-3M melanoma = system: MALME-3M melanoma
RPMI-8226 leukemia = system: RPMI-8226 leukemia
COLO 205 colon = system: COLO 205 colon
CCRF-CEM leukemia = system: CCRF-CEM leukemia
U251 CNS = system: U251 CNS
SF-539 CNS = system: SF-539 CNS
HOP-92 NSCLC = system: HOP-92 NSCLC
HS 578T breast = system: HS 578T breast
SK-MEL-5 melanoma = system: SK-MEL-5 melanoma
T-47D breast = system: T-47D breast
SN12C renal = system: SN12C renal
A549 NSCLC = system: A549 NSCLC
SR leukemia = system: SR leukemia
SK-MEL-2 melanoma = system: SK-MEL-2 melanoma
SF-295 CNS = system: SF-295 CNS
HL-60(TB) leukemia = system: HL-60(TB) leukemia
MCF7 breast = system: MCF7 breast
A498 renal = system: A498 renal
LOX IMVI melanoma = system: LOX IMVI melanoma
NCI-H522 lung = system: NCI-H522 lung
HCT-15 colon = system: HCT-15 colon
K-562 leukemia = system: K-562 leukemia
BT-549 breast = system: BT-549 breast
HCC-2998 colon = system: HCC-2998 colon
UACC-257 melanoma = system: UACC-257 melanoma
HCT-116 colon = system: HCT-116 colon
786-0 renal = system: 786-0 renal
KM12 colon = system: KM12 colon
PC-3 prostate = system: PC-3 prostate
NCI-H23 lung = system: NCI-H23 lung
OVCAR-3 ovarian = system: OVCAR-3 ovarian
OVCAR-8 ovarian = system: OVCAR-8 ovarian
HOP-62 NSCLC = system: HOP-62 NSCLC
M14 melanoma = system: M14 melanoma
SK-OV-3 ovarian = system: SK-OV-3 ovarian
IGROV1 ovarian = system: IGROV1 ovarian
TK-10 renal = system: TK-10 renal
EKVX NSCLC = system: EKVX NSCLC
SF-268 CNS = system: SF-268 CNS
MDA-MB-231 breast = system: MDA-MB-231 breast
DU-145 prostate = system: DU-145 prostate
OVCAR-4 ovarian = system: OVCAR-4 ovarian
SK-MEL-28 melanoma = system: SK-MEL-28 melanoma
RXF 393 renal = system: RXF 393 renal
ACHN renal = system: ACHN renal
UACC-62 melanoma = system: UACC-62 melanoma
OVCAR-5 ovarian = system: OVCAR-5 ovarian
NCI-H460 lung = system: NCI-H460 lung
HT29 colon = system: HT29 colon
NCI/ADR-RES ovarian = system: NCI/ADR-RES ovarian
NCI-H226 lung = system: NCI-H226 lung
SW-620 colon = system: SW-620 colon
MOLT-4 leukemia = system: MOLT-4 leukemia
UO-31 renal = system: UO-31 renal

## COC(=O)N[C@H]1C=C[C@@H]2/C=C(C)/C=C/[C@@H](C)[C@H]([C@H](C)[C@H](O)[C@@H](C)NC(C)=O)OC(=O)/C=C/C=C(C)\C=C\[C@]2(C)C1
MDA-MB-435
  GI50: 3.74 nM and 4.53 nM
  TGI: 10600 nM
SNB-19 CNS
  GI50: 118 nM and 16.4 nM
  TGI: > 45300 nM
MALME-3M melanoma
  GI50: 1190 nM and 261 nM
  TGI: 10800 nM
RPMI-8226 leukemia
  GI50: 17.3 nM and 4.59 nM
  TGI: 21000 nM
COLO 205 colon
  GI50: 14 nM and 11.3 nM
  TGI: 7070 nM
CCRF-CEM leukemia
  GI50: 2580 nM
  TGI: > 45300 nM
U251 CNS
  GI50: 4.72 nM and 4.53 nM
  TGI: 24700 nM
SF-539 CNS
  GI50: 4.13 nM and 4.53 nM
  TGI: 6550 nM
HOP-92 NSCLC
  GI50: 2.11 nM and 4.53 nM
  TGI: 44 nM and 26.8 nM
HS 578T breast
  GI50: 29.3 nM and 16.5 nM
  TGI: > 45300 nM
SK-MEL-5 melanoma
  GI50: 3.65 nM and 4.53 nM
  TGI: 29.1 nM and 15 nM
T-47D breast
  GI50: 6.96 nM and 4.53 nM
  TGI: > 45300 nM
SN12C renal
  GI50: 8.13 nM and 5.18 nM
  TGI: > 45300 nM
A549 NSCLC
  GI50: 31.2 nM and 4.53 nM
  TGI: > 45300 nM
SR leukemia
  GI50: 7 nM and 4.53 nM
  TGI: 13400 nM
SK-MEL-2 melanoma
  GI50: 7190 nM
  TGI: 33100 nM
SF-295 CNS
  GI50: 3.71 nM and 4.53 nM
HL-60(TB) leukemia
  GI50: 7.22 nM and 5.48 nM
  TGI: 19600 nM
MCF7 breast
  GI50: 8.26 nM and 4.53 nM
  TGI: > 45300 nM
A498 renal
  GI50: 13.2 nM and 13.5 nM
LOX IMVI melanoma
  GI50: 2.94 nM and 4.53 nM
  TGI: 11 nM and 4.75 nM
NCI-H522 lung
  GI50: 61.3 nM and 38.8 nM
  TGI: 19200 nM
HCT-15 colon
  GI50: 8.93 nM and 7.36 nM
  TGI: > 45300 nM
K-562 leukemia
  GI50: 14.6 nM
  TGI: > 45300 nM
BT-549 breast
  GI50: 18.7 nM and 12.6 nM
  TGI: 42100 nM
HCC-2998 colon
  TGI: > 45300 nM
UACC-257 melanoma
  GI50: 29 nM and 4.53 nM
  TGI: > 45300 nM
HCT-116 colon
  GI50: 3.71 nM and 4.53 nM
  TGI: > 45300 nM
786-0 renal
  GI50: 16.5 nM and 7.46 nM
  TGI: > 45300 nM
KM12 colon
  GI50: 9.59 nM and 13.5 nM
  TGI: > 45300 nM
PC-3 prostate
  GI50: 7.85 nM and 4.53 nM
  TGI: > 45300 nM
NCI-H23 lung
  GI50: 94.3 nM and 96.4 nM
  TGI: > 45300 nM
OVCAR-3 ovarian
  GI50: 172 nM and 635 nM
  TGI: 16500 nM
OVCAR-8 ovarian
  GI50: 17.9 nM and 7.45 nM
  TGI: > 45300 nM
HOP-62 NSCLC
  GI50: 70.5 nM and 27.8 nM
  TGI: > 45300 nM
M14 melanoma
  GI50: 3.69 nM and < 4.53 nM
  TGI: 35.8 nM and < 4.53 nM
SK-OV-3 ovarian
  GI50: 6.7 nM
IGROV1 ovarian
  GI50: 24.8 nM and 4.53 nM
  TGI: > 45300 nM
TK-10 renal
  GI50: 5120 nM and 5680 nM
  TGI: > 45300 nM
EKVX NSCLC
  TGI: > 45300 nM
SF-268 CNS
  TGI: > 45300 nM
MDA-MB-231 breast
  GI50: 2.28 nM and 4.53 nM
DU-145 prostate
  TGI: > 45300 nM
OVCAR-4 ovarian
  GI50: 5920 nM
  TGI: > 45300 nM
SK-MEL-28 melanoma
  GI50: 12.1 nM and 10.2 nM
  TGI: 13300 nM
RXF 393 renal
  GI50: 4.49 nM and 4.53 nM
  TGI: 16200 nM
ACHN renal
  GI50: 4.53 nM
  TGI: > 45300 nM
UACC-62 melanoma
  GI50: 18.9 nM and 19.6 nM
  TGI: 8920 nM
OVCAR-5 ovarian
  GI50: 8010 nM and 6550 nM
  TGI: > 45300 nM
NCI-H460 lung
  GI50: 13.5 nM and 6.97 nM
  TGI: > 45300 nM
HT29 colon
  GI50: 6.18 nM and 4.53 nM
  TGI: > 45300 nM
NCI/ADR-RES ovarian
  GI50: 28.2 nM and 16.1 nM
  TGI: > 45300 nM
NCI-H226 lung
  GI50: 28.3 nM and 5.04 nM
  TGI: 9150 nM
SW-620 colon
  GI50: 8.92 nM and 4.53 nM
  TGI: 16200 nM
MOLT-4 leukemia
  GI50: 8510 nM
  TGI: > 45300 nM
UO-31 renal
  GI50: 7.47 nM and 4.53 nM
  TGI: 28700 nM
